According to patent US6610846B1, “Heteroaromatic glucokinase activators” (Hoffman-La Roche Inc., priority 1999, dated 2003):

Test system: not given
Assay: not given
Settings: not given
For CS(=O)(=O)c1ccc(C(CC2CCCC2)C(=O)Nc2ccc(Br)cn2)cc1C(F)(F)F (centres unmarked) [Example 156(A), N-(5-Bromo-pyridin-2-yl)-3-cyclopentyl-2-(4-methanesulfonyl-3-trifluoromethyl-phenyl)-propionamide], the melting point was 81 to 85 °C. Work on CS(=O)(=O)c1ccc(C(CC2CCCC2)C(=O)Nc2ccncn2)cc1[N+](=O)[O-] (centres unmarked) [Example 158, 3-Cyclopentyl-2-(4-methanesulfonyl-3-nitro-phenyl)-N-pyrimidin-4-yl-propionamide] yielded a melting point of 91 to 95 °C. In the case of Cc1nccc(NC(=O)C(CC2CCCC2)c2ccc(S(C)(=O)=O)c([N+](=O)[O-])c2)n1 (centres unmarked) [Example 159, 3-Cyclopentyl-2-(4-methanesulfonyl-3-nitro-phenyl)-N-(2-methyl-pyrimidin-4-yl)-propionamide], the melting point is reported as 96 to 99 °C. With CS(=O)(=O)c1ccc(C(CC2CCCC2)C(=O)Nc2cc[nH]c(=O)n2)cc1[N+](=O)[O-] (centres unmarked) [Example 160, 3-Cyclopentyl-2-(4-methanesulfonyl-3-nitro-phenyl)-N-(2-oxo-1,2-dihydro-pyrimidin-4-yl)-propionamide] the melting point was 256 to 258 °C (dec.). Compound CS(=O)(=O)c1ccc(C(CC2CCCC2)C(=O)Nc2cnccn2)cc1[N+](=O)[O-] (centres unmarked) [Example 161, 3-Cyclopentyl-2-(4-methanesulfonyl-3-nitro-phenyl)-N-pyrazin-2-yl-propionamide] has a melting point of 104 to 108 °C. With CS(=O)(=O)c1ccc(C(CC2CCCC2)C(=O)Nc2ncc[nH]2)cc1[N+](=O)[O-] (centres unmarked) [Example 162, 3-Cyclopentyl-N-(1 H-imidazol-2-yl)-2-(4-methanesulfonyl-3-nitro-phenyl)-propionamide] the melting point was 243 to 244 °C. O=C(Nc1ccc(Br)cn1)C(CC1CCCC1)c1ccc(Cl)c([N+](=O)[O-])c1 (centres unmarked) [Example 164, N-(5-Bromo-pyridin-2-yl)-2-(4-chloro-3-nitro-phenyl)-3-cyclopentyl-propionamide] gave a melting point of 128 to 130 °C. In the case of O=C(Nc1ccncn1)C(CC1CCCC1)c1cccc(C(F)(F)F)c1 (centres unmarked) [Example 165(A), 3-Cyclopentyl-N-pyrimidin-4-yl-2-(3-trifluoromethyl-phenyl)-propionamide], the melting point is reported as 113 to 115 °C. O=C(Nc1ccc([N+](=O)[O-])cn1)C(CC1CCCC1)c1ccc(F)c(C(F)(F)F)c1 (centres unmarked) [Example 167(A), 3-Cyclopentyl-2-(4-fluoro-3-trifluoromethyl-phenyl)-N-(5-nitro-pyridin-2-yl)-propionamide] gave a melting point of 121 to 122 °C.

Test system: C57BL/6J mice
Assay: Glucokinase activator in vivo screen (blood glucose after oral dosing)
Settings: administered orally, 50 mg/kg, C57BL/6J mice fasted two hours; decrease in blood glucose compared to vehicle over six hours (Example B)
Procedure: Glucokinase Activator In Vivo Screen Protocol
C57BL/6J mice are orally dosed via gavage with Glucokinase (GK) activator at 50 mg/kg body weight following a two hour fasting period. Blood glucose determinations are made five times during the six hour post-dose study period. Mice (n=6) are weighed and fasted for a two hour period prior to oral treatment.
In the case of CS(=O)(=O)c1ccc(C(CC2CCCC2)C(=O)Nc2nccs2)cc1 (centres unmarked) [Example 3(A), 3-Cyclopentyl-2-(4-methanesulfonyl-phenyl)-N-thiazol-2-yl-propionamide], the “glucokinase activator in vivo activity” value is reported as “excellent glucokinase activator in vivo activity”. In the case of CS(=O)(=O)c1ccc(C(CC2CCCC2)C(=O)Nc2nccs2)cc1Cl (centres unmarked) [Example 12, 2-[3-Chloro-4-methanesulfonyl-phenyl]-3-cyclopentyl-N-thiazol-2-yl-propionamide], the “glucokinase activator in vivo activity” value is reported as “excellent glucokinase activator in vivo activity”. For CS(=O)(=O)c1ccc([C@@H](CC2CCCC2)C(=O)Nc2nccs2)cc1 [Example 13, (2R)-3-Cyclopentyl-2-(4-methanesulfonylphenyl)-N-thiazol-2-yl-propionamide], the “glucokinase activator in vivo activity” value was “excellent glucokinase activator in vivo activity”. In the case of Cc1ccc(NC(=O)C(CC2CCCC2)c2ccc(S(=O)(=O)C(F)(F)F)cc2)nc1 (centres unmarked) [Example 43(B)(b), 3-Cyclopentyl-N-(5-methyl-pyridin-2-yl)-2-(4-trifluoromethanesulfonyl-phenyl)-propionamide], the “glucokinase activator in vivo activity” value is reported as “excellent glucokinase activator in vivo activity”. For COC(=O)c1ccc(NC(=O)C(CC2CCCC2)c2ccc(S(=O)(=O)C(F)(F)F)cc2)nc1 (centres unmarked) [Example 43(B)(c), 6-[3-Cyclopentyl-2-(4-trifluoromethanesulfonyl-phenyl)-propionylamino]-nicotinic acid methyl ester], the “glucokinase activator in vivo activity” value was “excellent glucokinase activator in vivo activity”. With COC(=O)c1ccc(NC(=O)[C@H](CC2CCCC2)c2ccc(Cl)c(Cl)c2)nc1 [Example 45, 6-[3-Cyclopentyl-2(R)-(3,4-dichloro-phenyl)-propionylamino]-nicotinic acid methyl ester] the “glucokinase activator in vivo activity” value was “excellent glucokinase activator in vivo activity”. With O=C(Nc1ccc(Cl)cn1)[C@H](CC1CCCC1)c1ccc(Cl)c(Cl)c1 [Example 54(A), N-(5-Chloro-pyridin-2-yl)-3-cyclopentyl-2(R)-(3,4-dichloro-phenyl)-propionamide] the “glucokinase activator in vivo activity” value was “excellent glucokinase activator in vivo activity”. With O=C(Nc1ccccn1)[C@H](CC1CCCC1)c1ccc(Cl)c(Cl)c1 [Example 54(B)(a), 3-Cyclopentyl-2(R)-(3,4-dichloro-phenyl)-N-pyridin-2-yl-propionamide] the “glucokinase activator in vivo activity” value was “excellent glucokinase activator in vivo activity”. With CS(=O)(=O)c1ccc(C(CC2CCCC2)C(=O)Nc2ccccn2)cc1Cl (centres unmarked) [Example 92, 2-(3-Chloro-4-methanesulfonyl-phenyl)-3-cyclopentyl-N-pyridin-2-yl-propionamide] the “glucokinase activator in vivo activity” value was “excellent glucokinase activator in vivo activity”. For CS(=O)(=O)c1ccc(C(CC2CCCC2)C(=O)Nc2ccc(Br)cn2)cc1Cl (centres unmarked) [Example 93, N-(5-Bromo-pyridin-2-yl)-2-(3-chloro-4-methanesulfonyl-phenyl)-3-cyclopentyl-propionamide], the “glucokinase activator in vivo activity” value was “excellent glucokinase activator in vivo activity”. For CS(=O)(=O)c1ccc([C@@H](CC2CCCC2)C(=O)Nc2ccc(Br)cn2)cc1Cl [Example 99, N-(5-Bromo-pyridin-2-yl)-2(R)-(3-chloro-4-methanesulfonyl-phenyl)-3-cyclopentyl-propionamide], the “glucokinase activator in vivo activity” value was “excellent glucokinase activator in vivo activity”. For O=C(Nc1ccc(CO)cn1)[C@H](CC1CCCC1)c1ccc(Cl)c(Cl)c1 [Example 106, 3-Cyclopentyl-2(R)-(3,4-dichloro-phenyl)-N-(5-hydroxymethyl-pyridin-2-yl)propionamide], the “glucokinase activator in vivo activity” value was “excellent glucokinase activator in vivo activity”. With CS(=O)(=O)c1ccc([C@@H](CC2CCCC2)C(=O)Nc2ncc(Br)s2)cc1 [Example 133, N-(5-Bromo-thiazol-2-yl)-3-cyclopentyl-2(R)-(4-methanesulfonyl-phenyl)-propionamide] the “glucokinase activator in vivo activity” value was “excellent glucokinase activator in vivo activity”. In the case of Cc1csc(NC(=O)[C@H](CC2CCCC2)c2ccc(S(C)(=O)=O)c(Cl)c2)n1 [Example 139, 2(R)-(3-Chloro-4-methanesulfonyl-phenyl)-3-cyclopentyl-N-(4-methyl-thiazol-2-yl)-propionamide], the “glucokinase activator in vivo activity” value is reported as “excellent glucokinase activator in vivo activity”. In the case of Cc1ccc(NC(=O)[C@H](CC2CCCC2)c2ccc(S(C)(=O)=O)c(Cl)c2)nc1 [Example 140, 2(R)-(3-Chloro-4-methanesulfonyl-phenyl)-3-cyclopentyl-N-(5-methyl-pyridin-2-yl)-propionamide], the “glucokinase activator in vivo activity” value is reported as “excellent glucokinase activator in vivo activity”. In the case of CS(=O)(=O)c1ccc(C(CC2CCCC2)C(=O)Nc2ccncn2)cc1Cl (centres unmarked) [Example 141, 2-(3-Chloro-4-methanesulfonyl-phenyl)-3-cyclopentyl-N-pyrimidin-4-yl-propionamide], the “glucokinase activator in vivo activity” value is reported as “excellent glucokinase activator in vivo activity”. With CS(=O)(=O)c1ccc([C@@H](CC2CCCC2)C(=O)Nc2ccncn2)cc1Cl [Example 142, 2(R)-(3-Chloro-4-methanesulfonyl-phenyl)-3-cyclopentyl-N-pyrimidin-4-yl-propionamide] the “glucokinase activator in vivo activity” value was “excellent glucokinase activator in vivo activity”. In the case of Cc1nccc(NC(=O)C(CC2CCCC2)c2ccc(S(C)(=O)=O)c(Cl)c2)n1 (centres unmarked) [Example 143, 2-(3-Chloro-4-methanesulfonyl-phenyl)-3-cyclopentyl-N-(2-methyl-pyrimidin-4-yl)-propionamide], the “glucokinase activator in vivo activity” value is reported as “excellent glucokinase activator in vivo activity”. For Cc1nccc(NC(=O)[C@H](CC2CCCC2)c2ccc(S(C)(=O)=O)c(Cl)c2)n1 [Example 144, 2(R)-(3-Chloro-4-methanesulfonyl-phenyl)-3-cyclopentyl-N-(2-methyl-pyrimidin-4-yl)-propionamide], the “glucokinase activator in vivo activity” value was “excellent glucokinase activator in vivo activity”. In the case of Cc1nccc(NC(=O)C(CC2CCCC2)c2ccc(S(C)(=O)=O)c(Br)c2)n1 (centres unmarked) [Example 148(B)(a), 2-(3-Bromo-4-methanesulfonyl-phenyl)-3-cyclopentyl-N-(2-methyl-pyrimidin-4-yl)-propionamide], the “glucokinase activator in vivo activity” value is reported as “excellent glucokinase activator in vivo activity”. In the case of CS(=O)(=O)c1ccc(C(CC2CCCC2)C(=O)Nc2cnccn2)cc1Br (centres unmarked) [Example 149, 2-(3-Bromo-4-methanesulfonyl-phenyl)-3-cyclopentyl-N-pyrazin-2-yl-propionamide], the “glucokinase activator in vivo activity” value is reported as “excellent glucokinase activator in vivo activity”. In the case of CS(=O)(=O)c1ccc(C(CC2CCCC2)C(=O)Nc2ccncn2)cc1C(F)(F)F (centres unmarked) [Example 155(B)(a), 3-Cyclopentyl-2-(4-methanesulfonyl-3-trifluoromethyl-phenyl)-N-pyrimidin-4-yl-propionamide], the “glucokinase activator in vivo activity” value is reported as “excellent glucokinase activator in vivo activity”. With CS(=O)(=O)c1ccc(C(CC2CCCC2)C(=O)Nc2cnccn2)cc1C(F)(F)F (centres unmarked) [Example 155(B)(b), 3-Cyclopentyl-2-(4-methanesulfonyl-3-trifluoromethyl-phenyl)-N-pyrazin-2-yl-propionamide] the “glucokinase activator in vivo activity” value was “excellent glucokinase activator in vivo activity”.
